{"source": "patent US20220396818A1", "about": "“POLYNUCLEOTIDE SYNTHESIS METHOD, KIT AND SYSTEM” (Oxford Nanopore Technologies PLC, priority 2019, published 2022)", "test_system": "3′-O-azidomethyl group on DNA model", "experiment": "Deprotection of 3′-O-azidomethyl group by TCEP, monitored by extension reaction", "conditions": "0.2 μM DNA model", "description": "Deprotection step (FIG. 26a) was studied on DNA model bearing 3′-O-azidomethyl group that is introduced to DNA by incorporation of 3′-O-azidomethyl-dNTPs by Therminator IX DNA polymerase. Deprotection was carried out by tris(carboxyethyl)phosphine (TCEP) and monitored by extension reaction when mixture of all natural dNTPs is added to the solution of the purified deprotected DNA.\n• 1. 2 μl of 10× Thermopol® buffer (20 mM Tris-HCl, 10 mM (NH4)2SO4, 10 mM KCl, 2 mM MgSO4, 0.1% Triton® X-100, pH 8.8, New England BioLabs) was mixed with 12.25 μl of sterile deionized water (ELGA VEOLIA) in 1.5 ml Eppendorf tube. • 2. 1 μl of 10 μM primer (10 pmol, 1 equiv) (SEQ ID NO: 39, FIG. 26i) and 1.5 μl of either 10 μM template-A/G/T/C (15 pmol, 1.5 equiv) (SEQ ID NOS: 40 to 43, FIG. 26i) were added to the reaction mixture. • 3. 3′-O-modified-dTTP/dCTP/dATP/dGTP (2 μl of 100 μM) and MnCl2 (1 μl of 40 mM) were added. • 4. 1.5 μl of Therminator IX DNA polymerase (15 U, New England BioLabs) was then added. • 5. The reaction was incubated for 5 minutes at 37° C. • 6. 4 μL of the sample was taken out and mixed with 0.5 ul of 5 mM dNTP mix and allowed to react for 10 minutes for control reaction. • 7. 40 μL of the 500 mM TCEP in 1M TRIS buffer pH 7.4 was added to the reaction mixture and allowed to react for 10 minutes at 37° C. • 8. […]", "data": [{"smiles": "O=C(O)CCP(CCC(=O)O)CCC(=O)O", "note": "[TCEP, tris(carboxyethyl)phosphine]", "values": [{"measurement": "cleavage of 3′-O-azidomethyl group with high efficiency", "setting": "50 mM TCEP", "value": "not sufficient"}, {"measurement": "efficiency of cleavage of 3′-O-azidomethyl group", "setting": "300 mM TCEP", "value": 95, "unit": "%"}]}]}
